Test results reported in BindingDB's records for doi:10.1021/acs.jmedchem.0c01153 (Tokyo Medical and Dental University (Tmdu), 2021).
pIC50: −log10 of the molar value.

Legend:
[1] = Inhibition of HIV1 KP-5mp1 gp120 interaction with CD4 human TZM-bl cells assessed as decrease in viral entry by MTT assay
[2] = Inhibition of HIV1 KP-5mvcR gp120 interaction with CD4 in human TZM-bl cells assessed as decrease in viral entry by MTT assay

| pIC50 [1] | pIC50 [2] | Structure (SMILES) |
| --- | --- | --- |
| 4.37 | 6.14 | N=C(N)NCCCCCCCCCCC(=O)NCCN1CCC(NC(=O)C(=O)Nc2ccc(Cl)cc2)CC12CCCCC2 (stereo not given) |
| 5.68 | 6.92 | N=C(N)NCCCCC(=O)NCCN1CCC(NC(=O)C(=O)Nc2ccc(Cl)cc2)CC12CCCCC2 (stereo not given) |
| 5.41 | 6.54 | N=C(N)NCCCC[C@H](NC(=N)N)C(=O)NCCN1CCC(NC(=O)C(=O)Nc2ccc(Cl)cc2)CC12CCCCC2 (stereo not given in full) |
| 5.36 | 6.64 | N=C(N)NCC(=O)NCCCC[C@H](NC(=N)N)C(=O)NCCN1CCC(NC(=O)C(=O)Nc2ccc(Cl)cc2)CC12CCCCC2 (stereo not given in full) |
| 4.89 | 6.48 | N=C(N)NCCCCC(=O)NCCCC[C@H](NC(=N)N)C(=O)NCCN1CCC(NC(=O)C(=O)Nc2ccc(Cl)cc2)CC12CCCCC2 (stereo not given in full) |
| 5.54 | 6.38 | N=C(N)NCCCCCCCC(=O)NCCCC[C@H](NC(=N)N)C(=O)NCCN1CCC(NC(=O)C(=O)Nc2ccc(Cl)cc2)CC12CCCCC2 (stereo not given in full) |
| 5.32 | 6.06 | N=C(N)NCCCCCCCCCCC(=O)NCCCC[C@H](NC(=N)N)C(=O)NCCN1CCC(NC(=O)C(=O)Nc2ccc(Cl)cc2)CC12CCCCC2 (stereo not given in full) |
|  | 5.47 | CCCCCCCCCCCCCCCCNC(=O)CCC(=O)OC(CCCNS(=O)(=O)c1ccc([N+](=O)[O-])cc1)C(=O)NCCN1CCC(NC(=O)C(=O)Nc2ccc(Cl)cc2)CC12CCCCC2 (stereo not given) |
|  | 6.24 | COCCOCCOCCOCCOCCNC(=O)CCC(=O)OC(CCCNS(=O)(=O)c1ccc([N+](=O)[O-])cc1)C(=O)NCCN1CCC(NC(=O)C(=O)Nc2ccc(Cl)cc2)CC12CCCCC2 (stereo not given) |
|  | 6.60 | CCCCCCCCCCCCCCCCNC(=O)CCC(=O)OC(CCCN)C(=O)NCCN1CCC(NC(=O)C(=O)Nc2ccc(Cl)cc2)CC12CCCCC2 (stereo not given) |
|  | 7.34 | COCCOCCOCCOCCOCCNC(=O)CCC(=O)OC(CCCN)C(=O)NCCN1CCC(NC(=O)C(=O)Nc2ccc(Cl)cc2)CC12CCCCC2 (stereo not given) |
|  | 5.92 | CCCCCCCCCCCCCCCCNC(=O)CCC(=O)OC(CCCNC(=N)N)C(=O)NCCN1CCC(NC(=O)C(=O)Nc2ccc(Cl)cc2)CC12CCCCC2 (stereo not given) |
|  | 7.77 | COCCOCCOCCOCCOCCNC(=O)CCC(=O)OC(CCCNC(=N)N)C(=O)NCCN1CCC(NC(=O)C(=O)Nc2ccc(Cl)cc2)CC12CCCCC2 (stereo not given) |
|  | 6.89 | COCCOCCOCCOCCOCCNC(=O)CCC(=O)N[C@@H](CCCNC(=N)N)C(=O)NCCN1CCC(NC(=O)C(=O)Nc2ccc(Cl)cc2)CC12CCCCC2 (stereo not given in full) |
|  | > 7.00 | COCCOCCOCCOCCOCCOCCOCCOCCOCCOCCOCCOCCNC(=O)CCC(=O)N[C@@H](CCCNC(=N)N)C(=O)NCCN1CCC(NC(=O)C(=O)Nc2ccc(Cl)cc2)CC12CCCCC2 (stereo not given in full) |
|  | > 7.00 | COCCOCCOCCOCCOCCOCCOCCOCCOCCOCCOCCOCCOCCOCCOCCOCCOCCOCCOCCOCCOCCOCCOCCOCCNC(=O)CCC(=O)N[C@@H](CCCNC(=N)N)C(=O)NCCN1CCC(NC(=O)C(=O)Nc2ccc(Cl)cc2)CC12CCCCC2 (stereo not given in full) |
| < 4.00 |  | N=C(N)NCCCCCCCC(=O)NCCN1CCC(NC(=O)C(=O)Nc2ccc(Cl)cc2)CC12CCCCC2 (stereo not given) |
| 5.16 |  | CC1(C)CC(NC(=O)C(=O)Nc2ccc(Cl)cc2)CC(C)(C)N1 [N-(4-chlorophenyl)-N'-(2,2,6,6-tetramethylpiperidin-4-yl)-oxalamide] |
